Measurements published in patent publication US10993957B2 (NuCana plc, priority 2011, dated 2021).
“Also recorded” adds a separate entry of the source. Like-named read-outs stand apart in the source and are kept apart here.

Legend:
L1210/TK^− = assay: Cytostatic assay, thymidine kinase-deficient L1210/TK^− cells; assay type: cell-based, murine; conditions: Mus musculus; for IC50: L1210
FM3A/0 = assay: Cytostatic assay, FM3A/0 cells; assay type: cell-based; conditions: Mus musculus, FM3A/0; Table 1; read-out: CC50 FM3A/0
Procedure: The samples were assayed for biological activity versus a range of tumour cell lines with data recorded in Table 1 below. […] The cell lines employed were L1210/0 (a leukemia cell line), FM3A/0 (a breast cancer cell line), Cem/0 (an acute lymphoblastic leukemia cell line) and HeLa (a cervical cell line).

Cem/0 = assay: Cytostatic assay, CEM/0 cells; assay type: cell-based, human; conditions: Homo sapiens, CCRF-CEM; for CC50: Table 1, read-out: CC50 Cem/0
Description: (§1) The cell lines employed were L1210/0 (a leukemia cell line), FM3A/0 (a breast cancer cell line), Cem/0 (an acute lymphoblastic leukemia cell line) and HeLa (a cervical cell line).

HeLa = assay: Cytostatic assay, HeLa cells; assay type: cell-based; conditions: Homo sapiens, HeLa; for CC50: Table 1, read-out: CC50 HeLa; for IC50: Table 6, read-out: IC50 HeLa
Description: as §1

L1210.Hyor = assay: Cytostatic assay, Mycoplasma hyorhinis-infected L1210 cells; conditions: for % Retention: CC50 L1210 × 100 ÷ CC50 L1210/Hyor; for CC50 / IC50: Mus musculus; for CC50: L1210, read-out: CC50 L1210/Hyor
Summary of the method: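 Proliferation read by Coulter counting after 48 h exposure of compound-treated L1210 cells carrying M. hyorhinis infection (60,000 cells/well, DMEM with 10% FBS, 37 °C). Values also given as percent activity retained in infected cells.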

U87 = assay: Cytostatic assay, U87 cells; assay type: cell-based; conditions: Homo sapiens, U-87 MG, read-out: IC50 U87
Procedure: (§4) All cells were maintained in Dulbecco's modified Eagle's medium (DMEM) (Invitrogen, Carlsbad, Calif.) with 10% foetal bovine serum (FBS) (Biochrom AG, Berlin, Germany), 10 mM Hepes and 1 mM Sodium Pyruvate (Invitrogen). Cells were grown at 37° C. in a humidified incubator with a gas phase of 5% CO2.
After 24 hours, an equal volume of fresh medium containing the test compounds was added. On day 5, cells were trypsinized and counted in a Coulter counter (Analis, Suarlée, Belgium). […] The cells were allowed to proliferate for 48 h (L1210) or 72 hours (CEM) and were then counted in a Coulter counter.

U87.Hyor = assay: Cytostatic assay, Mycoplasma hyorhinis-infected U87 cells; assay type: cell-based, human; conditions: for IC50: Homo sapiens, U-87 MG, read-out: IC50 U87.Hyor
Procedure: as §4
Monolayer cells (U87 and U87.Hyor) were seeded in 48-well microtiter plates (Nunc™, Roskilde, Denmark) at 10,000 cells/well. After 24 hours, an equal volume of fresh medium containing the test compounds was added. On day 5, cells were trypsinized and counted in a Coulter counter (Analis, Suarlée, Belgium). Suspension cells (L1210/0, L1210/TK^−, L1210.Hyor, CEM/0, CEM/TK^−) were seeded in 96-well microtiter plates (Nunc™) at 60,000 cells/well in the presence of a given amount of the test compounds. The cells were allowed to proliferate for 48 h (L1210) or 72 hours (CEM) and were then counted in a Coulter counter.

[1] = target: T1, thymidylate synthase (TS) (Mus musculus, UniProt P07607); assay: TS activity in intact L1210/0 cells (tritium release); assay type: cell-based, murine; conditions: for increase of inhibition of 3H release upon longer preincubation times: up to 4 hr versus 30 min
T1 sequence (P07607 whole entry): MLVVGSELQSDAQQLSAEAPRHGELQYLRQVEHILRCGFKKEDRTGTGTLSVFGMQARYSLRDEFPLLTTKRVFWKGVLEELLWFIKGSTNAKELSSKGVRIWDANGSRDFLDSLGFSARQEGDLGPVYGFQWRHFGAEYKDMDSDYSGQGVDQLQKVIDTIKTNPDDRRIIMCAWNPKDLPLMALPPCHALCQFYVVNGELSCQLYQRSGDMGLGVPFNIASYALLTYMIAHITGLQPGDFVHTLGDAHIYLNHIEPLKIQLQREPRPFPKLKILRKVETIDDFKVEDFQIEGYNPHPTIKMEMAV
Procedure: (§2) The activity of TS in intact L1210/0 and L1210/TK^− cells was measured by evaluation of tritium release from [5-^3H]dUMP (formed in the cells from [5-^3H]dUrd or [5-^3H]dCyd) in the reaction catalysed by TS. This method has been described in detail by Balzarini & De Clercq (1984). […] After 30 min, 2 h and 4 h preincubation of the cells with the compounds at 37° C., 1 μCi of [5-^3H]dUrd or [5-^3H]dCyd was added to the cell cultures. After 30 min incubation, 100 μL of the cell suspensions were withdrawn and added to a cold suspension of 500 μL activated charcoal (VWR, Haasrode, Belgium) (100 mg/ml in TCA 5%). After 10 min, the suspension was centrifuged at 13,000 rpm for 10 min, after which the radioactivity in 400 μL supernatant was counted in a liquid sinctillator using OptiPhase HiSafe (Perkin Elmer, Waldham, Mass.).
The activity of TS in intact tumour cells can be directly monitored by measuring the tritium release in intact L1210/0 cell cultures that were exposed to [5-^3H]deoxyuridine ([5-^3H]dUrd) or [5-^3H]deoxycytidine ([5-^3H]dCyd). Indeed, after intracellular conversion of [5-^3H]dUrd or [5-^3H]dCyd to [5-^3H]dUMP, the C-5 tritium atom on the pyrimidine base is released during the TS-catalysed reductive methylation.

[2] = target: T1, thymidylate synthase (TS); assay: TS activity in intact L1210/TK^− cells (tritium release); assay type: cell-based, murine; conditions: tritium release from [5-3H]dCyd, 4 hours preincubation; read-out: IC50 against TS, L1210/TK^−
Procedure: as §2

Cem/hEnt-1 = assay: Cytostatic assay, CEM cells containing the hEnt1 transporter; assay type: cell-based
Description: (§3) Data are mean (±SD) of at least two to four independent experiments. Table 8 identifies the phosphoramidate motif of compounds embodying the present invention, as discussed above with respect to Table 6, but with “Naph” standing for 1-naphthyl.

Cem/hEnt-0 = assay: Cytostatic assay, CEM cells lacking the hEnt1 transporter; assay type: cell-based; conditions: Homo sapiens, CCRF-CEM, read-out: IC50 Cem/hEnt-0
Description: as §3

[3] = target: Thymidine Phosphorylase purified from Escherichia coli (Escherichia coli, UniProt P07650); assay: Phosphorylase assay by in situ 19F NMR
Chain of Thymidine Phosphorylase purified from Escherichia coli (P07650 whole entry): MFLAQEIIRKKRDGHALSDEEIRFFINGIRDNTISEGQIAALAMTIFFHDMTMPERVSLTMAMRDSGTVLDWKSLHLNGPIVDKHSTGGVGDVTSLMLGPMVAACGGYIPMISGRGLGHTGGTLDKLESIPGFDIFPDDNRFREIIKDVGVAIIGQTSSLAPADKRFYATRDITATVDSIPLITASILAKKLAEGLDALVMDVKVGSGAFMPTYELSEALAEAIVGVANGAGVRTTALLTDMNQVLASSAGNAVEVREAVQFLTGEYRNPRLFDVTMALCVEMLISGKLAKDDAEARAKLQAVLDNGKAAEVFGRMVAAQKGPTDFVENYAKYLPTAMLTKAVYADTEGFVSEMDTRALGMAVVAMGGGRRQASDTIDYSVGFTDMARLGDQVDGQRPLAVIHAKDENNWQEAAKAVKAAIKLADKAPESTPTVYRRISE
Procedure: Two potassium phosphate buffers at pH=7.4, 200 nM solution and 300 nM solution respectively, were used as phosphate donor. Units of enzyme were defined as the amount of enzyme required to hydrolyse about 0.25 mg of inosine per min used as standard. Assays were conducted for 30 minutes.

[4] = Table 3, read-out: IC50 L1210/TK−
[5] = Table 6, read-out: IC50 L1210/TK^−
[6] = L1210/0, 30 min preincubation, both substrates, read-out: IC50 for tritium release from [5-3H]dCyd and [5-3H]dUrd
[7] = intact L1210/0 cells, 30 min exposure, read-out: IC50 Tritium release from dCyd*
[8] = intact L1210/0 cells, 30 min exposure, read-out: IC50 Tritium release from dUrd*
[9] = tritium release from [5-3H]dCyd, 4 hours preincubation, read-out: IC50 against TS, L1210/0
[10] = Homo sapiens, CCRF-CEM, read-out: IC50 Cem/hEnt-1

| Compound | IC50 (L1210/TK^−; [4]) | IC50 (L1210/TK^−; [5]) | CC50 (FM3A/0) | CC50 (Cem/0) | IC50 (Cem/0; Table 3, read-out: IC50 CEM/0) | IC50 (Cem/0; Table 6, read-out: IC50 Cem/0) | CC50 (HeLa) | IC50 (HeLa) | % Retention (L1210.Hyor) | CC50 (L1210.Hyor) | IC50 [1, 6] | IC50 [1, 7] | IC50 [1, 8] | IC50 [1, 9] | increase of inhibition of 3H release upon longer preincubation times [1] | IC50 [2] | IC50 (Cem/hEnt-1; [10]) | IC50 (Cem/hEnt-0) | other results |
| --- | --- | --- | --- | --- | --- | --- | --- | --- | --- | --- | --- | --- | --- | --- | --- | --- | --- | --- | --- |
| O=c1[nH]c(=O)n([C@H]2C[C@H](O)[C@@H](CO)O2)cc1F [5-FdUrd, 5-fluoro-2′-deoxyuridine, reference compound] | 3100 nM | 3000 ± 100 nM | 6.5 ± 5.5 nM | 28 ± 2 nM | 28 nM | 22 ± 6 nM | 29 ± 7 nM | 50 ± 11 nM | 0.2% | 278 nM | 0.7 to 0.9 nM | 0.7 nM | 0.9 ± 0.2 nM | 0.3 nM | 2 fold | 1420 ± 90 nM | 40 ± 20 nM | 2500 ± 650 nM | CC50 (L1210/TK^−; L1210, Table 1, read-out: CC50 L1210/TK^−): 3100 ± 200 nM; IC50 (L1210.Hyor; L1210, read-out: IC50 L1210.Hyor, Table 3): 240 nM; loss of cytostatic activity against L1210.Hyor cells (L1210.Hyor; versus L1210/0): 300 fold; IC50 (U87; Table 3): 7 ± 1 nM; loss of cytostatic activity in U87.Hyor versus uninfected U87 cells (U87.Hyor): 400 fold; IC50 (U87.Hyor; Table 3): 3000 ± 550 nM; Conversion of substrate into the base 5-FU ([3]; potassium phosphate buffer increased to 205 nM): fully converted; Conversion of nucleoside into the free base 5FU ([3]; potassium phosphate buffer, pH 7.4, TP 20.7 UNI, 25° C.): 66% |
| C[C@H](NP(=O)(OC[C@H]1O[C@@H](n2cc(F)c(=O)[nH]c2=O)CC1O)Oc1cccc2ccccc12)C(=O)OCc1ccccc1 (stereo partly drawn) [CPF 373, 5-Fluoro-2′deoxyuridine-5′-O-[1-naphthyl (benzoxy-L-alaninyl)] phosphate] | 27 nM | 45 ± 27 nM | 59 ± 46 nM | 89 ± 43 nM | 89 nM | 68 ± 35 nM | 65 ± 13 nM | 65 ± 13 nM | 44% | 25 nM | 160 to 190 nM | 190 ± 80 nM | 160 ± 50 nM | 13 nM | 10 fold | 53 nM | 50 ± 20 nM | 600 ± 110 nM | IC50 (L1210.Hyor; L1210, read-out: IC50 L1210.Hyor): 25 nM; IC50(L1210.Hyor)/IC50(L1210/0) (L1210.Hyor; Table 7): 2.27; IC50 (U87): 35 nM; IC50 (U87.Hyor): 39 nM; inhibitory activity on tritium release less pronounced than that of 5-FdUrd ([1]; 30 min preincubation): ~200 fold; IC50 (Cem/hEnt-1; read-out: IC50 Cem/hEnt-1 + NBMPR, in the presence of NBMPR): 260 nM; IC50 (Cem/hEnt-1; read-out: IC50 Cem/hEnt-1 + dipyridamole, in the presence of dipyridamole): 130 nM; Stability in the presence of TP (19F NMR) ([3]; with and without TP, repeated after days): completely stable; also recorded: evident stability against TP enzymatic activity |
